The values below come from patent US8394767B2, “Methods of treating cancer using the calcitonin-gene related peptide (“CGRP”) receptor antagonist CGRP8-37” (University of Rochester, priority 2008, dated 2013).

No end group written: not given here.

The subject of data set [1] is CGRP receptor. Conditions: oocyte-CFTR assay, Luebke et al. 1996; cited from earlier work.
Another data set has as its target T1, RCP (Mus musculus, UniProt O35427).
T1 construct: endogenous in cells; host or cells: NIH3T3
The data set can be described thus: Co-immunoprecipitation of RCP with L2/EGFP in NIH3T3 cells. The data set is classed as binding. Conditions: L2/EGFP transfected into NIH3T3 cells, GFP immunoprecipitation, probed with anti-RCP. The text has this:
(§1) FIG. 7A is a schematic illustration showing that the second intracellular loop of CLR was cloned as a fusion protein with enhanced green fluorescent protein (EGFP). […] The immunoprecipitate was separated by SDS-PAGE and probed with an antibody directed against RCP. RCP co-immunoprecipitated with the L2/EGFP fusion protein (lanes 5, 6) indicating an interaction between RCP and the second intracellular loop of CLR.
(§2) A fusion protein was constructed containing the second intracellular loop (“L2” or elsewhere designated “cpd2”) of CLR and the enhanced green fluorescent protein (L2/EGFP) (FIG. 7A). RCP co-immunoprecipitated with the L2/EGFP fusion protein, indicating a direct interaction between the two proteins (FIG. 7B). […] This confirmed the belief that over-expression of L2/EGFP pulls most of the available RCP away from the CGRP receptor complex, and that the CLR/RAMP1 complex is unable to signal. Thus, the site of interaction between the second intracellular loop of CLR and RCP represents a novel control site for signaling at CLR, and represents a candidate for development of anti-proliferative drugs to combat tumor growth.

In data set [2] the test system is CNS1 glioma cells. The data set can be described thus: Growth of CNS1 glioma cells constitutively expressing L2/EGFP (FACS-purified). It is filed as cell-based, rat. Conditions: constitutive expression. From the text: To examine the role of CLR in glioma proliferation, inhibition of CLR via expression of L2/EGFP was attempted. Although CNS1 cells that constitutively express GFP were generated using published techniques (Evans et al., “CGRP-RCP, A Novel Protein Required for Signal Transduction At Calcitonin Gene-Related Peptide and Adrenomedullin Receptors,” J Biol Chem 275(40):31438-43 (2000); Prado et al., “The Role of the CGRP-Receptor Component Protein (RCP) in Adrenomedullin Receptor Signal Transduction,” Peptides 22(11):1773-81 (2001); Rosenblatt et al., “Endoproteolysis At Tetrabasic Amino Acid Sites in Procalcitonin Gene-Related Peptide by Pituitary Cell Lines,” Peptides 18(4):567-76 (1997), which are hereby incorporated by reference in their entirety), upon transfection of the constitutively expressed L2/EGFP construct, pure fluorescent colonies could not be isolated.

Data set [3] concerns breast cancer lines (human MDA-MB-231 and MDA-MB-231 BR, mouse 4T1 and TG1). The data set can be described thus: Growth of breast cancer lines constitutively expressing L2/EGFP (FACS-purified). It is filed as cell-based. Conditions: constitutive promoter. The text has this: To determine if the dominant-negative L2/EGFP fusion protein could inhibit CLR function in breast cancer cells, four breast cancer lines (human MDA-MB-231 and MDA-MB-231 BR lines and mouse 4T1 and TG1 lines) were transfected with L2/EGFP or GFP alone. MDA-MB231 and MDA-MB-231BR cells that constitutively express GFP were generated as previously described (Evans et al., “CGRP-RCP, a Novel Protein Required for Signal Transduction at Calcitonin Gene-Related Peptide and Adrenomedullin Receptors,” J Biol Chem 275(40):31438-43 (2000); Prado et al., “The Role of the CGRP-Receptor Component Protein (RCP) in Adrenomedullin Receptor Signal Transduction,” Peptides 22(11):1773-81 (2001); and Rosenblatt et al., “Endoproteolysis at Tetrabasic Amino Acid Sites in Procalcitonin Gene-Related Peptide by Pituitary Cell Lines” Peptides 18(4):567-76 (1997), which are hereby incorporated by reference in their entirety). However, when a constitutive promoter was used to express L2/EGFP in these tumor cells, pure fluorescent colonies could not be isolated because, it is believed, the constitutive expression of L2/EGFP was too effective at inhibiting tumor growth.

Data set [4] has as its target T2, CGRP receptor (Mus musculus, UniProt O35427).
T2 construct: NIH3T3 cells, which endogenously express CGRP receptors; endogenous in cells; host or cells: NIH3T3
Kind of data set: CGRP receptor signaling (cAMP) in NIH3T3 cells expressing L2/EGFP. The data set is classed as cell-based. Conditions: L2/EGFP expressed in NIH3T3 cells, which endogenously express CGRP receptors.
Text: as §1, §2

A further data set has as its system anti-CGRP antibody JH84. Kind of data set: Fluorescent competition assay with FL-CGRP tracer on immobilized antibody. The data set is classed as binding. Conditions: JH84 bound to 96-well plate, 100 pM FL-CGRP as tracer. Here is the method:
FIG. 11 is a graph illustrating that FL-CGRP can be used for a competition assay to determine CGRP concentrations. Affinity-purified JH84 antibody (100 ng/well) was linked to wells in a 96-well plate, and incubated with 100 pM FL-CGRP and increasing concentrations of unlabeled CGRP. Unbound peptide was washed from well, and fluorescence detected in a Perkin Elmer plate reader.
FL-CGRP was then used to develop a fluorescent competition assay. Affinity-purified anti-CGRP antibody JH84 was bound to the wells of a 96-well plate and […] FL-CGRP was incubated as tracer with either unlabeled CGRP, the homologous neuropeptide adrenomedullin (AM), or the CGRP antagonist CGRP(8-37). […] Thus, the antagonist could not totally compete with FL-CGRP for binding to the antibodies.

The subject of data set [5] is MDA-MB-231BR breast cancer cells. The data set can be described thus: MDA-MB-231BR breast cancer cell growth assay (CyQuant Direct Proliferation Assay). The data set is classed as cell-based, human. Conditions: normoxic conditions, after 4 days in culture. The protocol:
FIGS. 4A-B are graphs illustrating that CGRP is a potent stimulator of MDA-MB231BR breast cancer cell growth. MDA-MB231BR cells were seeded in 96-well plates, and grown for the indicated time in either normoxic (4A) or hypoxic (4B) conditions. Media was replaced every 24 hrs with fresh peptide-containing media. On each day, cell number was determined using the CyQuant Direct Proliferation Assay (Invitrogen).
A similar role for CGRP in the stimulation of breast cancer cell growth was observed using the MDA-MB-231BR breast cancer cell line. […] 81:39-48 (2007); Oxmann et al., “Endoglin Expression in Metastatic Breast Cancer Cells Enhances Their Invasive Phenotype,” Oncogene 27:3567-3575 (2008), each of which is herbey incorporated by reference in its entirety). In this assay, CGRP induced the MDA-MB-231BR breast cancer cells 6-fold over control after 4 days in culture under normoxic conditions (FIGS. 4A-B).

The test system of data set [6] is CNS1 glioma cells. Kind of data set: CNS1 glioma tumor cell proliferation assay (CyQuant Direct Proliferation Assay). The data set is classed as cell-based, rat. Conditions: for stimulation of glioma growth over control: hypoxic conditions. Here is the method: FIGS. 3A-B are graphs illustrating that CGRP is a potent stimulator of CNS1 glioma cell growth. CNS1 cells were seeded in 96-well plates, and grown for the indicated time in either normoxic (3A) or hypoxic […] conditions. Media was replaced every 24 hrs with fresh peptide-containing media. On each day, cell number was determined using the CyQuant Direct Proliferation Assay (Invitrogen).
The rat glioma cell line CNS1 was used in a tumor cell proliferation assay. Both AM and CGRP were tested for their ability to stimulate glioma growth. […] More striking was the effect under hypoxic conditions, where CGRP stimulated glioma growth 72-fold over control after 4 days in culture and 10-fold after 5 days in culture (FIG. 3B).

Another data set has as its target T3, FL-CGRP (Rattus norvegicus, UniProt P01256).
T3 sequence (P01256 83-119 limits assumed): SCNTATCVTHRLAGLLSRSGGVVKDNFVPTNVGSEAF
The data set can be described thus: Immunoprecipitation of FL-CGRP by anti-CGRP antibodies. It is filed as binding. Conditions: saturating unlabeled CGRP. From the text: FIGS. 10A-B illustrate the immunoprecipitation of FL-CGRP using anti-CGRP antibodies JH84 and MU33. FIG. 10B schematically illustrates the binding sites of these antibodies.
To be useful for development of non-radioactive competition assays, which will be useful for quantifying CGRP in tissues and cells, the FL-label at lysine^24 cannot inhibit anti-CGRP antibody binding. […] The binding sites for JH84 and MU33 on CGRP are illustrated schematically in FIG. 10B.

Data set [7] deals with rodent receptors over human receptors. Conditions: cited from earlier work.
In data set [8] the test system is CGRP receptors (CLR-cherry and RAMP1). Kind of data set: FL-CGRP binding to COS1 cells transfected with CLR-cherry and RAMP1 (fluorescence microscopy). The protocol:
FIG. 12 is a panel of microscopy images illustrating that FL-CGRP specifically binds to cells expressing CLR and RAMP1. COS1 cells were transfected with CLR-cherry and RAMP1. 30 nM FL-CGRP was incubated with transfected cells for 30 minutes, and cells were washed 2× with PBS and visualized by phase-contrast microscopy (left panel), and fluorescent microscopy to identify cells expressing the CLR-cherry fusion protein (center panel) and cells that bound FL-CGRP (right panel).
COS1 cells were transfected with a fusion protein containing CLR-fused at its carboxyl terminus to the fluorescent protein cherry. CLR-cherry and RAMP1 were co-transfected into COS1 cells, and 48 hours post-transfection cells were incubated with FL-CGRP, and imaged using phase contrast microscopy (FIG. 12, left panel) as well as fluorescence microscopy for cherry (580 nm) (FIG. 12, center panel) and FL-CGRP (488 nm) (FIG. 12, right panel).

T1 sequence (O35427 whole entry): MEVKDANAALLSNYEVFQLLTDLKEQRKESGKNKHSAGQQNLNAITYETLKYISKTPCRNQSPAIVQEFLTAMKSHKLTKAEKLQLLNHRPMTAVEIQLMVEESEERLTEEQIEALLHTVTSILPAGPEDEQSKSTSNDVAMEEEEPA
T2 sequence (O35427 whole entry): as above

For “SEQ ID NO:9: antisense DNA oligonucleotide TGCTCACTGTGTAAGCCTTAAATCCATCAAG (DNA, backbone not given here)”, the CGRP receptor function result with CGRP receptor [1] is “inhibit CGRP receptor function”.

Consider “L2/EGFP: fusion protein of the second intracellular loop of CLR and enhanced green fluorescent protein; dominant-negative inhibitor of CLR signaling (LIVVAVFAEKQHLMWYYFLGWGFPLIPACIH; also: fusion protein with EGFP)”, for which the “co-immunoprecipitation with RCP” value with RCP was “co-immunoprecipitated”. For the same compound, the “growth of pure populations of cells expressing the dominant-negative inhibitor” value (with CNS1 glioma cells [2]; in [3]) was “would not grow” in each case. Further, in the data set with CGRP receptor [4], the “signaling at the CGRP receptor as measured by cAMP” value is given as “inhibited signaling at the CGRP receptor”.

“CGRP: 37 amino acid neuropeptide derived from calcitonin-related polypeptide alpha; agonist of the CGRP receptor”: the “competition with FL-CGRP for binding to immobilized antibody” value (“competition with FL-CGRP for binding” for short) with anti-CGRP antibody JH84 is “effectively competed”. For the same compound, the “induction of MDA-MB-231BR breast cancer cells over control” value in data set [5] was 6 fold. In addition, the “stimulation of glioma growth over control” value in the data set on CNS1 glioma cells [6] (after 4 days in culture) turned out to be 72 fold; in the data set on CNS1 glioma cells [6] (after 5 days in culture) it was 10 fold. The “increase of CNS1 cell growth over control” value in the data set on CNS1 glioma cells [6] (normoxic conditions, after 5 days in culture) stood at 11 fold. Also, the “effect on immunoprecipitation of FL-CGRP by JH84 and MU33” value in the data set with FL-CGRP is listed as “blocked”.

For “CGRP8-37: peptide CGRP antagonist consisting of residues 8-37 of SEQ ID NO: 2”, in the data set on anti-CGRP antibody JH84, the “competition with FL-CGRP for binding” value is given as “partially competed”.

`NCCCC[C@H](NC(=O)[C@@H](Cc1cc(Br)c(O)c(Br)c1)NC(=O)N1CCC(N2Cc3ccccc3NC2=O)CC1)C(=O)N1CCN(c2ccncc2)CC1` [BIB4096, N-((1R)-2-(((1S)-5-amino-1-((4-(pyridin-4-yl)piperazin-1-yl)carbonyl)pentyl)amino)-1-(3,5-dibromo-4-hydroxybenzyl)-2-oxoethyl)-4-(2-oxo-1,4-dihydroquinazolin-3(2H)-yl)piperidine-1-carboxamide]: in data set [7], the “lower affinity for rodent receptors over human receptors” value is listed as 100-1000 ×.

Take “FL-CGRP: rat CGRP with a single Alexa488 dye molecule attached to the lysine24 residue”: the “binding to CGRP receptors” value in data set [8] is recorded as “high-affinity”. Further, the “FL-CGRP binding to cells” value is reported as “only observed to bind to cells that were expressing CLR-cherry” in data set [8] (COS1 cells co-transfected with CLR-cherry and RAMP1, 48 hours post-transfection, 30 nM FL-CGRP); “No FL-CGRP binding was detected” in [8] (untransfected cells).

With “AM: the homologous neuropeptide adrenomedullin”, in the data set on anti-CGRP antibody JH84, the “competition with FL-CGRP for binding” value is on record as “did not compete”.
